For one data set, the system named is Phytophthora infestans. The experiment in a line: whole plant or invertebrate. To be noted: in Solanum lycopersicum, 72 h, read-out: Efficacy in % based on the untreated control at an active compound concentration of 50 ppm. Type of data set: in vivo.
Regarding `CN(C)S(=O)(=O)n1c(Br)nc2cc3c(cc21)OC(F)(F)C(F)(F)O3`, the pest or weed control at 50 ppm came to 86%. For `COc1ccc2c(c1)nc(Cl)n2S(=O)(=O)c1c(C)noc1C`, the pest or weed control at 50 ppm was found to be 96%. For `Cc1onc(N)c1S(=O)(=O)n1c(Br)nc2cc3c(cc21)OC(F)(F)O3`, the pest or weed control at 50 ppm is 95%. Take `Cc1noc(C)c1S(=O)(=O)n1c(Cl)nc2ccccc21`: the pest or weed control at 50 ppm came out at 99%. `Cc1onc(N)c1S(=O)(=O)n1c(Cl)nc2cc3c(cc21)OC(F)(F)C(F)(F)O3`: the pest or weed control at 50 ppm was 97%. On to `Cc1noc(C)c1S(=O)(=O)n1c(Br)nc2cc(Cl)c(Cl)cc21`, for which the pest or weed control at 50 ppm was determined as 95%. Regarding `Cc1noc(C)c1S(=O)(=O)n1c(Br)nc2cc3c(cc21)OC(F)(F)O3` [drawing 100], the pest or weed control at 50 ppm was determined as 99%. Take `Cc1noc(C)c1S(=O)(=O)n1c(Br)nc2cc3c(cc21)OC(F)(F)C(F)(F)O3` [drawing 101]: the pest or weed control at 50 ppm was 97%. With `Cc1noc(C)c1S(=O)(=O)n1c(Cl)nc2cc3c(cc21)OC(F)(F)O3` [drawing 109], the pest or weed control at 50 ppm is 99%. Turning to `Cc1noc(C)c1S(=O)(=O)n1c(Cl)nc2ccc(Sc3ccccc3)cc21` [drawing 110], the pest or weed control at 50 ppm worked out at 99%.

Another data set deals with Plasmopara viticola. The experiment in a line: Plasmopara test (vines)/protective. To be noted: 50 ppm active compound; vines sprayed protectively; evaluated 6 days after inoculation; 100% = no disease. Type of data set: in vivo.
On to `Cc1noc(C)c1S(=O)(=O)n1c(Br)nc2cc3c(cc21)OC(F)(F)O3` [drawing 114], for which the “Efficacy in % based on the untreated control at an active compound concentration of 50 ppm” value (“Efficacy in % based” below) was 99%.

For the compound `Cc1noc(C)c1S(=O)(=O)n1c(Br)nc2cc3c(cc21)OC(F)(F)C(F)(F)O3` [drawing 115], the “Efficacy in % based” value was determined as 93%. As to `Cc1noc(C)c1S(=O)(=O)n1c(Cl)nc2cc3c(cc21)OC(F)(F)O3` [drawing 118], the “Efficacy in % based” value was 100%. For `Cc1noc(C)c1S(=O)(=O)n1c(Cl)nc2ccc(Sc3ccccc3)cc21` [drawing 119], the “Efficacy in % based” value is recorded as 100%.

System in the next data set: not given
Assay: not given
Conditions: not given
Turning to `Cc1noc(C)c1S(=O)(=O)n1c(Br)nc2cc3c(cc21)OC(F)(F)O3`, the melting point is 130 to 134 °C. As for `FC1(F)Oc2cc3nc(Br)[nH]c3cc2OC1(F)F`, the melting point was in the range of 170 to 174 °C. Consider `Clc1nc2cc3c(cc2[nH]1)OCCO3`, for which the melting point was determined as 150 °C. The compound `FC1(F)Oc2cc3nc[nH]c3cc2OC1(F)F` came in with a melting point of 70 to 74 °C.

Source of the values: patent US6638960B2, “Halogenobenzimidazoles and their use as microbicides” (Bayer Aktiengesellschaft, priority 1995, dated 2003).
